Consider five compounds from paper PMC5441580, “GPR40 partial agonist MK-2305 lower fasting glucose in the Goto Kakizaki rat via suppression of endogenous glucose production” (PLoS ONE, 2017).

Values joined by “and” are separate entries in the source; they are usually repeats but may differ in a detail not shown here. Identical values can stand only once.

The test system of data set [1] is diabetic humans. The settings on record: clinical trials; cited from earlier work.
In data set [2] the test system is perfused db/db mouse livers. In words: isolated perfused liver study, 13C NMR, [2-13C] pyruvate. Particulars: data not shown. As to the method:
To evaluate whether GPR40 partial agonist treatment produced a direct effect on hepatic glucose production, we performed isolated perfused liver studies with ^13C NMR spectroscopy in which GPR40 agonists were dosed directly to the liver ex vivo. Mouse livers were chosen instead of rat livers due to size restrictions of the perfused liver apparatus. […] A detailed description of the perfused liver technique can be found elsewhere. Briefly, db/db mice were anesthetized (Nembutal IP, 100 mg/kg), the portal vein was cannulated and tied off, and the liver was excised and perfused with a pre-oxygenated Krebs-bicarbonate buffered solution. The liver was then placed into a 20 mm NMR tube and the gluconeogenic substrate [2-^13C] pyruvate (10 mM) was added to the perfusate plus either MK-2305 (10 μM) or vehicle (0.1% DMSO). […] These NMR signals were then converted to absolute units (μmoles) by comparison to ^13C NMR spectra of standard solutions acquired under identical conditions. Additional correction factors were included for ^13C-glycogen and ^13C-glucose to account for the fact that position 2 in pyruvate can end up at position 1, 2, 5, or 6 in glucose/glycogen due to the fumarase and triose phosphate isomerase reactions. The slope of each signal versus time was then used to calculate the following fluxes: glucose production, glycogen synthesis, and lactate production.

For data set [3], the system named is GK rats. In words: GK rat chronic efficacy, compound in feed for 20 days. In kind it is in vivo. Particulars: for Morning (fed) Blood Glucose: Rosi 10 mpk in feed. As to the method:
At the start of the study, fed glucose was measured at 8 A.M., and animals were selected and sorted into treatment groups based on ambient glucose (n = 10/male GK group, n = 6/male WKY control group). […] Fed blood glucose, food intake, and body weights were determined on days 0, 1, 3, 7, and 14 of study at 8 A.M. On days 7 and 14, food was removed for 5 h and plasma glucose was measured. Percent inhibitions were calculated as the percent reduction of blood glucose from the average value for vehicle controls. On day 14, blood was collected from the tail vein (20 μl) after the morning glucose measurement and after 5 h fast from a subset of n = 3 rats per treatment group to determine the ambient and fasted exposure of the compounds in circulation. The blood was stored at 4°C in 0.1 M sodium monocitrate for subsequent analysis. Animals were then re-fed their respective diet treatments. On day 20 of treatment at 8 A.M., blood glucose was measured and then animals were euthanized via CO2 asphyxiation. Blood and liver tissue were sampled, processed, and stored at -80°C until analysis.
Plasma was analyzed for triglycerides, NEFA, and HbA1C using a P Modular Roche Clinical Chemistry analyzer. Liver triglycerides were extracted as described by Bligh and Dyer, and were measured using the Infinity triglyceride assay kit (Thermo Scientific, Rockford, IL). Plasma insulin levels were measured via EIA (Mesoscale Discovery ELISA Kit, Gaithersburg MD).

A short description of data set [4]: plasma exposure of the compounds on day 14 of the chronic study. In kind it is in vivo, rat. Particulars: 10 mg/kg in feed, GK rats. On the procedure:
At the start of the study, fed glucose was measured at 8 A.M., and animals were selected and sorted into treatment groups based on ambient glucose (n = 10/male GK group, n = 6/male WKY control group). Animals were then placed on diet (LabDiet # 5001) that contained, or was devoid of, compound at the daily doses indicated. Fed blood glucose, food intake, and body weights were determined on days 0, 1, 3, 7, and 14 of study at 8 A.M. On days 7 and 14, food was removed for 5 h and plasma glucose was measured. Percent inhibitions were calculated as the percent reduction of blood glucose from the average value for vehicle controls. On day 14, blood was collected from the tail vein (20 μl) after the morning glucose measurement and after 5 h fast from a subset of n = 3 rats per treatment group to determine the ambient and fasted exposure of the compounds in circulation. The blood was stored at 4°C in 0.1 M sodium monocitrate for subsequent analysis. Animals were then re-fed their respective diet treatments. On day 20 of treatment at 8 A.M., blood glucose was measured and then animals were euthanized via CO2 asphyxiation. Blood and liver tissue were sampled, processed, and stored at -80°C until analysis.

For data set [5], the system named is GK rats. In words: GK rat chronic efficacy, compound in feed for 20 days. In kind it is in vivo. The settings on record: Day 7, ~6 hrs after food removal; 10mpk; chronic study; individual animals; 10 mg/kg.
In data set [6] the target is T1, rat GPR40 (FFAR1) (Rattus norvegicus, UniProt Q8K3T4).
T1 construct: expressed in transfected cells
Description: IP1 functional assay, CHO cells stably expressing rat GPR40. The settings on record: representative curve Fig 1B. In kind it is cell-based. As to the method: CHO Jump-IN cells stably expressing rat GPR40 or HEK293 Jump-IN cells stably expressing rat GPR120 were cultured in DMEM media supplemented with 10% dialyzed FBS, non-essential amino acids, penicillin/streptomycin, 10 μg/ml Blasticidin S HCL and 200 or 100 μg/ml Hygromycin B, respectively (Life Technologies). Cell stocks were maintained and grown in a sub-confluent state using standard cell culture procedures. The day before the experiment, the cells were harvested with non-enzymatic cell dissociation buffer and re-suspended in DMEM supplemented as described above at 0.15 million cells per ml. […] The seeded plates were incubated overnight at 37°C in a humidified environment.
On the day of the experiment, the growth media was removed from the assay plate by centrifugation using a BlueCatBio BlueWasher, protocol #21 “Light Dry” and 10 μl of IP1 stimulation buffer (prepared according to the Cisbio IP-one Tb HTRF kit) is added to each well. Test compounds were dissolved and serially diluted in DMSO as 200X the final assay concentration and 50 nl of the compound dilution was acoustically added to each well of the assay plates. The plates were then incubated for 60 minutes at room temperature and 10 μl of detection buffer (prepared according to the IP-one Tb HTRF kit) is added to each well of the assay plate. The plates were then incubated for one additional hour at room temperature. […] For each assay, a standard curve plate in which IP1 is titrated is also included. […] The % activation is then plotted versus the concentration of test compound and the dose response curve fitted to a standard 4-paramater non-linear regression model using a custom in-house developed software package. Maximal % activation and EC50 are then determined for each test compound.

The mark [7] stands for this setting: 10 mpk, following 20 days of treatment in the GK rat, individual animals.

T1 sequence (Q8K3T4 whole entry): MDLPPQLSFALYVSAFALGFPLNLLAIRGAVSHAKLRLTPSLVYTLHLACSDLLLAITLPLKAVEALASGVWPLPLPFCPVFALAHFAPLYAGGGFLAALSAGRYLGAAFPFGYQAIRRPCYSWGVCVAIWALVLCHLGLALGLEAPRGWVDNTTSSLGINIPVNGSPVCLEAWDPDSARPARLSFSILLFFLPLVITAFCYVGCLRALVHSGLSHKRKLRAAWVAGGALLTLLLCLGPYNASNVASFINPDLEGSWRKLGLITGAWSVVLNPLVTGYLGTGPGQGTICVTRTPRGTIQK

Consider `Cc1cc(OCCCS(C)(=O)=O)cc(C)c1-c1cccc(COc2ccc3c(c2)OC[C@H]3CC(=O)O)c1` [TAK-875, Fasiglifam], for which, in data set [1], the “effect on oral glucose tolerance, fasted plasma glucose, and hemoglobin HbA1C” value is recorded as “significant reductions”.

As to `CCOC(=O)[C@H](C)NP(=O)(N[C@@H](C)C(=O)OCC)c1ccc(-c2nc(N)sc2CC(C)C)o1` [CS917, reference compound], the “effect on gluconeogenesis in the perfused liver” value in data set [2] is “marked acute reductions”.

As for `CN(CCOc1ccc(CC2SC(=O)NC2=O)cc1)c1ccccn1` (stereo not shown) [Rosiglitazone, reference compound], the “effect on body weight” value in data set [3] (10 mg/kg in feed, GK rats) was “steady increase in body weight”. Besides, the “effect on food intake” value in data set [3] (10 mg/kg in feed, GK rats) is “significant and consistent increase in food consumption beginning on day 3”. For the same compound, the “% HBA1c” value in data set [3] (setting [7]) is 4.4% and 4.2% and 4.3% and 4.7%. The “Liver Triglycerides” value in data set [3] (setting [7]) was 5.5 mg/g tissue and 8.7 mg/g tissue and 7.2 mg/g tissue and 5 mg/g tissue and 3.9 mg/g tissue and 6.1 mg/g tissue and 3.1 mg/g tissue. Moreover, the Fasted plasma insulin in data set [3] (Day 7, 10mpk, individual animals, 10 mg/kg) was 64.4 pg/mL and 7.9 pg/mL and 28.0 pg/mL and 0.0 pg/mL and 126.7 pg/mL and 13.3 pg/mL and 40.2 pg/mL and 147.0 pg/mL and 54.7 pg/mL; in data set [3] (Day 14, 10mpk, individual animals, 10 mg/kg) it was 82.7 pg/mL and 67.8 pg/mL and 78.9 pg/mL and 214.4 pg/mL and 804.3 pg/mL and 809.3 pg/mL and 0.0 pg/mL and 890.8 pg/mL and 292.0 pg/mL. Besides, the “Morning (fed) Blood Glucose” value in data set [3] (Day 0 (start of study), individual GK rats) is 195 mg/dL and 181 mg/dL and 219 mg/dL and 203 mg/dL and 204 mg/dL and 243 mg/dL and 186 mg/dL and 233 mg/dL and 191 mg/dL and 282 mg/dL; in data set [3] (Day 1, individual GK rats) it was 211 mg/dL and 175 mg/dL and 218 mg/dL and 246 mg/dL and 213 mg/dL and 240 mg/dL and 207 mg/dL and 205 mg/dL and 198 mg/dL and 275 mg/dL; in data set [3] (Day 3, individual GK rats), 129 mg/dL and 177 mg/dL and 163 mg/dL and 175 mg/dL and 172 mg/dL and 174 mg/dL and 242 mg/dL; in data set [3] (Day 7, individual GK rats), 135 mg/dL and 125 mg/dL and 137 mg/dL and 118 mg/dL and 123 mg/dL; in data set [3] (Day 14, individual GK rats), 133 mg/dL and 134 mg/dL and 121 mg/dL and 132 mg/dL; in data set [3] (Day 20, individual GK rats), 126 mg/dL and 133 mg/dL and 128 mg/dL and 129 mg/dL and 127 mg/dL and 123 mg/dL. In data set [3] (Rosi @ 10, 20 days of treatment, individual GK rats), the “NEFA (mEq/L)” value is 0.32 mEq/L and 0.33 mEq/L and 0.35 mEq/L and 0.75 mEq/L and 0.49 mEq/L and 0.54 mEq/L and 0.48 mEq/L and 0.39 mEq/L and 0.65 mEq/L. In addition, the “decrease in fed glucose vs. vehicle” value in data set [3] (day 3, 10 mg/kg in feed, GK rats, p < 0.05) came to 22%. The “reduction in fasting blood glucose vs. vehicle” value in data set [3] (day 7, 5 hr fast, 10 mg/kg in feed, GK rats) amounted to 16%; in data set [3] (day 14, 5 hr fast, 10 mg/kg in feed, GK rats), 19%. Besides, in data set [3] (day 20, 10 mg/kg in feed, GK rats, mean ± SEM, vehicle 0.37 ± 0.03, not significant), the “plasma NEFA” value stood at 0.48 ± 0.05 mEq/L. Moreover, the “effect on circulating HbA1C levels” value in data set [3] (day 20, GK rats, all treatment groups) was “significantly reduced”. For the same compound, in data set [3] (day 20, GK rats, vs. vehicle controls), the “effect on liver triglyceride levels” value is “significant decrease”. For the same compound, the “effect on fasted plasma insulin” value in data set [3] (days 7 and 14, 5 hr fast, GK rats) is recorded as “no significant effects”. For the same compound, the Fasted blood glucose in data set [3] (second block of the table (day 14 per title), 10mpk, individual animals, 10 mg/kg) is 124 mg/dl and 131 mg/dl (2×) and 114 mg/dl and 133 mg/dl and 134 mg/dl; in data set [5], 109 mg/dL and 132 mg/dL and 121 mg/dL and 119 mg/dL and 134 mg/dL and 110 mg/dL and 115 mg/dL and 116 mg/dL. Besides, the plasma exposure was around 0.7 µM in data set [4] (day 14, fasted time point) and ~ 3 μM in data set [4] (day 14, fed time point).

As for `COc1ccc(F)c(-c2ccc(COc3cccc([C@@H](CC(=O)O)C4CC4)c3)cc2C2=CCCC2(C)C)c1` [AM1638, reference compound], the “Receptor Activation (%)” value is recorded as 370% in data set [6] (Concentration 1e-6 M); -18% in data set [6] (Concentration 1.50E-11 M); 132% in data set [6] (Concentration 1.56E-08 M); 11% in data set [6] (Concentration 2.44E-10 M); 361% in data set [6] (Concentration 2.50E-07 M); 23% in data set [6] (Concentration 3.91E-09 M). Also, the “Receptor Activation (%)” value in data set [6] (Concentration 4.00E-12 M) is -6%; in data set [6] (Concentration 6.10E-11 M), 2%; in data set [6] (Concentration 6.25E-08 M), 275%; in data set [6] (Concentration 9.77E-10 M) it was 18%.

On to `O=C(O)c1ncccc1S` [3-MPA, reference compound], for which the “effect on gluconeogenesis in the perfused liver” value in data set [2] is “marked acute reductions”.
